{"source": "patent US20080292591A1", "about": "“Tumor mouse models using lentiviral vectors” (The Salk Institute for Biological Studies, priority 2007, published 2008)", "origin": "cited, not measured here", "key": {"[1]": {"tested_on": "a variety of cell lines"}, "[2]": {"tested_on": "xenografts of tumors", "conditions": "animal models bearing xenografts of tumors"}}, "data": [{"compound": "Cc1cc(Nc2cc(N3CCN(C)CC3)nc(Sc3ccc(NC(=O)C4CC4)cc3)n2)n[nH]1", "note": "[VX-680]", "values": [{"measurement": "antiproliferative activity in vitro", "setting": "[1]", "result": "broad and potent antiproliferative activity"}, {"measurement": "antitumor activity in animal models", "setting": "[2]", "result": "robust antitumor activity"}]}]}
